# Data: article PMC6442474 (Planta medica, 2014)
# Molecular target: tau (2N4R) (Homo sapiens, UniProt P10636)
# Assay: arachidonic acid-induced tau aggregation, filter trap assay dose-response
# Format: biochemical
# Chain of tau (2N4R) (P10636 1-441 isoform P10636-8): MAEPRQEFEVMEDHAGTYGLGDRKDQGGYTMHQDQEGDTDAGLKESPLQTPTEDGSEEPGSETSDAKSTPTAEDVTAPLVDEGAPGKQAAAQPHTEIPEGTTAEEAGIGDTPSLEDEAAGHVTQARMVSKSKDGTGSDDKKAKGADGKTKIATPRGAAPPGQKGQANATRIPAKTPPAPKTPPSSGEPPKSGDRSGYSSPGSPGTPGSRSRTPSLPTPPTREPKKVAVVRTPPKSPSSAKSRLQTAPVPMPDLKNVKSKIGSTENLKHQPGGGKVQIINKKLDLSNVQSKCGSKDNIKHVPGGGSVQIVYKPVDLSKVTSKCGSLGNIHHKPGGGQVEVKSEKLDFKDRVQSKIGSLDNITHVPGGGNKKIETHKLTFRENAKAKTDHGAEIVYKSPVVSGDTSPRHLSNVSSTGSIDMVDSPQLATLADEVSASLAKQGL
row,Compound,IC50 [µM]
1,"O=C1c2cc(CO)cc(O)c2C(=O)c2c1cc(O)c(O)c2O [2,ω-dihydroxyemodin]",205 ± 28
2,asperbenzaldehyde,177 ± 103
3,O=C1c2c(cc(CO)c(O)c2O)C(=O)c2c(O)c(O)cc(O)c21 [asperthecin],39 ± 2
